The record followed here is patent US8304427B2, “Acylthiourea compound or salt thereof, and use thereof” (Taiho Pharmaceutical Co., Ltd., priority 2008, dated 2012).

Read-outs that look alike come from different tables or passages of the source.

The target in data set [1] is c-Met (Homo sapiens, UniProt P08581). Description: c-Met inhibitory assay using AlphaScreen (Method A). Type of data set: biochemical. Details: purchased Carna bio Co., Ltd 08-051. As to conditions: ATP 20 μM. The procedure:
Inhibitory activity of compounds against c-Met kinase was determined through the following procedures. Method A) c-Met inhibitory assay using AlphaScreen™
A biotinylated peptide including a phosphorylated site of Pyk2 (Tyr402), which is reported as a bio-substrate in Clin. Cancer Res. vol. […] The mixture was allowed to react at room temperature for 20 minutes. EDTA was added to the reaction mixture to a final concentration of 50 mM, to thereby terminate reaction. […] The reaction was done for one hour at room temperature. Thereafter, the fluorescence intensity from the reaction mixture was measured using a multi-label counter (EnVision™, Perkin Elmer).
A general note: Bead proximity is the source of the signal in Alpha formats.

Data set [2] has as its system NUGC4 cells. Description: Cell-proliferation inhibitory assay against NUGC4 cells (Crystal Violet). Type of data set: cell-based. As to conditions: Homo sapiens, NUGC-4, 72 h; NUGC4, cancer, c-Met status (+), 3 days. The protocol: Cell-Proliferation Inhibitory Assay Against NUGC4 Cells (Human Gastric Cancer Cell Strain in Which c-Met is Over-Expressed and Highly Activated), In Vitro Test
NUGC4 cell suspension (in a 10% FBS-containing RPMI 1640 medium (product of Wako Pure Chemical Industries Ltd.) or a FBS-containing DMEM medium (product of Nacalai Tesque, Inc.)) was inoculated to each well of a 96-well (flat-bottom) microplate in an amount of 2×10^3 cells (0.1 mL), and the plate was incubated in an incubator under 5% CO2 gas atmosphere at 37° C. for one day. Each of the compounds of the present invention and comparative compound 1 was dissolved in dimethyl sulfoxide to a concentration of 30 mM. The solution was diluted with 10% FBS-containing RPMI 1640 or DMEM medium, to a final test compound concentration of 60, 20, 6, 2, 0.6, or 0.2 μM. The thus-prepared test compound solution was added to each well of the NUGC4 cell culture plate at 0.1 mL/well, and the plate was incubated in an incubator under 5% CO2 gas atmosphere at 37° C. for 3 days. After culturing, 25% aqueous glutaraldehyde solution (product of Nacalai Tesque, Inc.) was added to each well at 20 μL, and the plate was left to stand at room temperature for 20 minutes, whereby cells were fixed. Thereafter, the plate was washed with tap water and dried. Then, aqueous 0.05% Crystal Violet/20% methanol solution (product of Wako Pure Chemical Industries Ltd.) was added to each well at 100 μL/well, and the plate was left to stand at room temperature for 20 minutes, whereby cells were stained. Thereafter, the plate was washed with tap water and dried. To each well, 0.05 M NaH2PO4/ethanol (1/1=v/v) (100 μL) was added, to thereby extract Crystal Violet. The absorbance of the extracted Crystal Violet was measured at 540 nm using a microplate reader, and the absorbance was employed as an index for living cell count. Percent inhibition was calculated by the following equation, and the 50% inhibition test compound concentration (IC50 (μM)) was calculated. Percent inhibition (%)=(C−T)/C×100 • T: Absorbance of well to which a test compound was added • C: Absorbance of well to which no test compound was added

For data set [3], the system named is HCT-116. Briefly: Cell proliferation inhibition test against c-Met low expressing tumor cells (HCT-116). The class given is cell-based. To be noted: for IC50: Homo sapiens; for ratio HCT-116: IC50 HCT-116 relative to IC50 NUGC4.
Data set [4] has as its system HAOSMC (human aortic smooth muscle cell). Briefly: Cell proliferation inhibition test against normal cells HAOSMC. The class given is cell-based. As to conditions: for IC50: Homo sapiens, 72 h, read-out: IC50 HAOSMC; for ratio HAOSMC: IC50 HAOSMC relative to IC50 NUGC4. The protocol:
[Worded in the source for another cell line; this cell line is reported under the same test.] (§1) The thus-prepared test compound solution was added to each well of the NUGC4 cell culture plate at 0.1 mL/well, and the plate was incubated in an incubator under 5% CO2 gas atmosphere at 37° C. for 3 days. […] Thereafter, the plate was washed with tap water and dried. Then, aqueous 0.05% Crystal Violet/20% methanol solution (product of Wako Pure Chemical Industries Ltd.) was added to each well at 100 μL/well, and the plate was left to stand at room temperature for 20 minutes, whereby cells were stained. Thereafter, the plate was washed with tap water and dried. To each well, 0.05 M NaH2PO4/ethanol (1/1=v/v) (100 μL) was added, to thereby extract Crystal Violet. The absorbance of the extracted Crystal Violet was measured at 540 nm using a microplate reader, and the absorbance was employed as an index for living cell count. […] Percent inhibition (%)=(C−T)/C×100 • T: Absorbance of well to which a test compound was added • C: Absorbance of well to which no test compound was added

The test system of data set [5] is HMEC (human skin microvascular endothelial cell). Briefly: Cell proliferation inhibition test against normal cells HMEC. The class given is cell-based. As to conditions: for IC50: Homo sapiens, HMEC, 72 h, read-out: IC50 HMEC; for ratio HMEC: IC50 HMEC relative to IC50 NUGC4. The protocol:
[Worded in the source for another cell line; this cell line is reported under the same test.] as §1

Data set [6] can be described thus: Dose determination study (body weight change, maximum tolerated dose). The class given is in vivo. As to conditions: nude mice, peroral. The procedure:
[…]. The maximum tolerated dose was calculated based on the change in body weight of the mice.
During the administration period, percent body weight change of mice (BWC %) was calculated. […] Thus, the half value of the toxicity expression dose was decided as a maximum tolerated dose.
BWC of mice was calculated by the following equation, and the change in mean BWC of each group during the administration period is shown in FIG. 1. BWC(%)=([(body weight of mouse on the day of weight measurement)−(body weight of mouse at grouping)]/(body weight of mouse at grouping))×100

The mark [7] stands for this setting: HCT-116, 72 h, read-out: IC50 HCT-116.
[8] abbreviates: 72 h, HCT-116, cancer, c-Met status (−), 3 days, read-out: IC50 HCT-116.
Where [9] appears, read: HAOSMC, normal, c-Met status (−), 3 days.
[10] abbreviates: normal, c-Met status (−), 3 days.

c-Met, sequence (P08581 956-1390 limits assumed): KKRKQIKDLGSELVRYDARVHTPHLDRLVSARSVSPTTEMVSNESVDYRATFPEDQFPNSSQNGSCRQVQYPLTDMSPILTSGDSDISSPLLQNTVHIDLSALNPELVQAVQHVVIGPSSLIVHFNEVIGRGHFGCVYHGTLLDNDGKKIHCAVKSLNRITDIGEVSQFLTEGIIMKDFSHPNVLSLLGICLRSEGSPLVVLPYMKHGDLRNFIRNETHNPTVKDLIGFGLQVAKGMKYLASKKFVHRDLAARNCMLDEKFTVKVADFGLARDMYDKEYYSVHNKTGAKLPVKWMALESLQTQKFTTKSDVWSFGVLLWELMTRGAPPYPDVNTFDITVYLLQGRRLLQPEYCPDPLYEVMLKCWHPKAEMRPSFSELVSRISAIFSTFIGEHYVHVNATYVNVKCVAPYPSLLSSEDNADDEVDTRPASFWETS

The IC50 is the concentration that gives 50% inhibition. Turning to `COc1cc2nccc(Oc3ccc(NC(=S)NC(=O)Cc4ccccc4)cc3F)c2cc1C(=O)NCC(C)(C)O` [Example 24, 4-(2-Fluoro-4-(3-(2-phenylacetyl)thioureido)phenoxy)-N-(2-hydroxy-2-methylpropyl)-7-methoxyquinoline-6-carboxamide], the IC50 in data set [1] is 33 nM; in data set [2], 20 nM; in data set [3] (setting [7]), 23 µM; in data set [4], over 30 µM; in data set [5] it was 16 µM. In data set [3], the “ratio HCT-116” value came to 1181. For the same compound, the “ratio HAOSMC” value in data set [4] was over 1552. Further, the “ratio HMEC” value in data set [5] is 1552.
In general, MTD refers to the largest dose that counted as tolerated. Higher therefore signals a wide tolerated range. Regarding `COc1cc2nccc(Oc3ccc(NC(=S)NC(=O)Cc4ccccc4)cc3F)c2cc1OC` [Comp. Ex. 1, reference compound], the IC50 in data set [2] was 200 nM; in data set [3] (setting [7]), 17 µM; in data set [3] (HCT-116, read-out: IC50 to c-Met low expressing and normal cell strains) it was 15 to 24 µM; in data set [4], 24 µM; in data set [5], 15 µM. The compound further registered a maximal tolerated dose (MTD) at 14 days in data set [6] (mouse, in vivo, oral, half value of the toxicity expression dose) of 100 mg/kg. The same compound displayed a toxicity expression dose in data set [6] (14 days, dose with ≧10% reduction in mean BWC) of 200 mg/kg. In addition, in data set [6] (once a day, 14 days, 100 mg/kg), the body weight change entry is given as “no decrease in body weight was observed”. For the same compound, in data set [6] (once a day, 14 days, 200 mg/kg), the “decrease in BWC” value was over 10%.
For the compound `COc1cc2nccc(Oc3ccc(NC(=S)NC(=O)Cc4ccccc4)cc3F)c2cc1C(=O)NCCS(C)(=O)=O` [Example 27, 4-(2-Fluoro-4-(3-(2-phenylacetyl)thioureido)phenoxy)-7-methoxy-N-(2-(methylsulfonyl)ethyl)quinoline-6-carboxamide], the concentration for half-maximal inhibition (IC50) in data set [1] was 59 nM; in data set [2], 20 nM; in data set [3] (setting [8]), 11 µM; in data set [4] (setting [9]), over 30 µM; in data set [5] (setting [10]), 14 µM. Besides, the “ratio HCT-116” value in data set [3] was determined as 714. In data set [4], the “ratio HAOSMC” value is recorded as over 1893. For the same compound, the “ratio HMEC” value in data set [5] came to 1894.
With `COc1cc2nccc(Oc3ccc(NC(=S)NC(=O)Cc4ccc(F)cc4)cc3F)c2cc1C(=O)NC1CCCCNC1=O` (centres unmarked) [Example 19, 4-(2-Fluoro-4-(3-(2-(4-fluorophenyl)acetyl)thioureido)phenoxy)-7-methoxy-N-(2-oxoazepan-3-yl)quinoline-6-carboxamide], the IC50 is 338 nM in data set [1]; 10 nM in data set [2]; over 30 µM in data set [3] (setting [8]); over 30 µM in data set [4] (setting [9]); 18 µM in data set [5] (setting [10]). For the same compound, in data set [3], the “ratio HCT-116” value is recorded as over 3000. The “ratio HAOSMC” value in data set [4] is over 3000. The “ratio HMEC” value in data set [5] is given as 3000.
In the case of `CCNC(=O)N1CCC(NC(=O)c2cc3c(Oc4ccc(NC(=S)NC(=O)Cc5ccccc5)cc4F)ccnc3cc2OC)CC1` [Example 15, N-(1-(Ethylcarbamoyl)piperidin-4-yl)-4-(2-fluoro-4-(3-(2-phenylacetyl)thioureido)phenoxy)-7-methoxyquinoline-6-carboxamide], the half-maximal inhibitory concentration (IC50) in data set [1] is 138 nM; in data set [2], 20 nM; in data set [3] (setting [8]), over 30 µM; in data set [4] (setting [9]), over 30 µM; in data set [5] (setting [10]), over 30 µM. Also, in data set [3], the “ratio HCT-116” value is on record as over 1584. Besides, the “ratio HAOSMC” value in data set [4] was over 1584. Further, the “ratio HMEC” value in data set [5] is given as over 1584.
Consider `COc1cc2nccc(Oc3ccc(NC(=S)NC(=O)Cc4ccccc4)cc3F)c2cc1C(=O)NCC(=O)N(C)C` [Example 22, N-(2-(Dimethylamino)-2-oxoethyl)-4-(2-fluoro-4-(3-(2-phenylacetyl)thioureido)phenoxy)-7-methoxyquinoline-6-carboxamide], for which the IC50 in data set [1] is 250 nM; in data set [2], 10 nM; in data set [3] (setting [8]), over 30 µM; in data set [4] (setting [9]), over 30 µM; in data set [5] (setting [10]), over 30 µM. Also, in data set [3], the “ratio HCT-116” value is given as over 3000. In addition, in data set [4], the “ratio HAOSMC” value is given as over 3000. Also, in data set [5], the “ratio HMEC” value is given as over 3000.
Turning to `COc1cc2nccc(Oc3ccc(NC(=S)NC(=O)Cc4ccccc4)cc3F)c2cc1C(=O)NCC(=O)N1CCOCC1` [Example 21, 4-(2-Fluoro-4-(3-(2-phenylacetyl)thioureido)phenoxy)-7-methoxy-N-(2-morpholino-2-oxoethyl)quinoline-6-carboxamide], the 50% inhibitory concentration (IC50) is 118 nM in data set [1]; 10 nM in data set [2]; over 30 µM in data set [3] (setting [8]); over 30 µM in data set [4] (setting [9]); 5 µM in data set [5] (setting [10]). Besides, the “ratio HCT-116” value in data set [3] was over 3000. Besides, the “ratio HAOSMC” value in data set [4] is over 3000. Further, in data set [5], the “ratio HMEC” value was 3000.
Turning to `COc1cc2nccc(Oc3ccc(NC(=S)NC(=O)Cc4ccccc4)cc3F)c2cc1C(=O)NCCCN1CCCC1=O` [Example 5, 4-(2-Fluoro-4-(3-(2-phenylacetyl)thioureido)phenoxy)-7-methoxy-N-(3-(2-oxopyrrolidin-1-yl)propyl)quinoline-6-carboxamide], the IC50 in data set [1] was 116 nM; in data set [2] it was 30 nM; in data set [3] (setting [8]), 29 µM; in data set [4] (setting [9]), over 30 µM; in data set [5] (setting [10]), 23 µM. Moreover, the “ratio HCT-116” value in data set [3] was 857. Also, the “ratio HAOSMC” value in data set [4] is over 879. The “ratio HMEC” value in data set [5] stood at 681.
